Laboratory results taken from ChEMBL document CHEMBL3046025, “Fungitoxic Properties of N-Phenylformamidoximes in Control of Benzimidazole-Resistant Isolates of Fungi” (1992).
Activity calls are given as the source filed them. The rule behind the calls is not given here.

How the values were obtained:
Botrytis cinerea [1] = assay: Antifungal activity against Benzimidalzole-resistant Botryotinia fuckeliana isolate Bc-44 infected kidney bean leaves at 200 ppm treated as foliar application followed by incubation for 7 days in green house condition; assay type: functional
Botrytis cinerea [2] = assay: Antifungal activity against Benzimidalzole-resistant Botryotinia fuckeliana isolate Bc-44 infected kidney bean leaves at 50 ppm applied as soil drench 3 days prior to inoculation; assay type: functional
Cercospora beticola [3] = assay: Ratio of EC50 for Benzimidalzole-resistant Cercospora beticola isolate 6-13 to EC50 for Benzimidalzole-resistant Cercospora beticola isolate 1-3; assay type: functional
Cercospora beticola [4] = assay: Antifungal activity against Benzimidalzole-resistant Cercospora beticola isolate 20-2 at 0.001 to 1000 ppm after 14 days by agar dilution method; assay type: functional, organism-based
Cercospora beticola [5] = assay: Ratio of EC50 for Benzimidalzole-resistant Cercospora beticola isolate 18-11 to EC50 for Benzimidalzole-resistant Cercospora beticola isole Cb-19; assay type: functional
Botrytis cinerea [6] = assay: Ratio of EC50 for Benzimidalzole-resistant Botryotinia fuckeliana isolate Bc-40 to EC50 for Benzimidalzole-resistant Botryotinia fuckeliana isolate Bc-31; assay type: functional
Cercospora beticola [7] = assay: Ratio of EC50 for Benzimidalzole-sensitive Cercospora beticola isolate 24-3 to EC50 for Benzimidalzole-resistant Cercospora beticola isolate 18-2; assay type: functional
Cercospora beticola [8] = assay: Ratio of EC50 for Benzimidalzole-sensitive Cercospora beticola isolate 22-5 to EC50 for Benzimidalzole-resistant Cercospora beticola isolate 18-2; assay type: functional
Botrytis cinerea [9] = assay: Ratio of EC50 for Benzimidalzole-sensitive Botryotinia fuckeliana isolate Bc-9 to EC50 for Benzimidalzole-resistant Botryotinia fuckeliana isolate Bc-31; assay type: functional
Botrytis cinerea [10] = assay: Ratio of EC50 for Benzimidalzole-sensitive Botryotinia fuckeliana isolate Bc-3 to EC50 for Benzimidalzole-resistant Botryotinia fuckeliana isolate Bc-31; assay type: functional
Cercospora beticola [11] = assay: Ratio of EC50 for Benzimidalzole-sensitive Cercospora beticola isolate 24-3 to EC50 for Benzimidalzole-resistant Cercospora beticola isolate 1-3; assay type: functional
Cercospora beticola [12] = assay: Antifungal activity against Benzimidalzole-sensitive Cercospora beticola isolate 18-1 infected in compound-treated sugar beet seedlings at 200 ppm after 12 days; assay type: functional
Cercospora beticola [13] = assay: Antifungal activity against Benzimidalzole-resistant Cercospora beticola isolate Cb-19 infected in compound-treated sugar beet seedlings at 12.5 ppm after 12 days; assay type: functional
Cercospora beticola [14] = assay: Ratio of EC50 for Benzimidalzole-resistant Cercospora beticola isolate 18-11 to EC50 for Benzimidalzole-resistant Cercospora beticola isolate 1-3; assay type: functional
Cercospora beticola [15] = assay: Antifungal activity against Benzimidalzole-resistant Cercospora beticola isolate 18-2 infected in compound-treated sugar beet seedlings at 50 ppm after 12 days; assay type: functional
Cercospora beticola [16] = assay: Ratio of EC50 for Benzimidalzole-resistant Cercospora beticola isolate 6-13 to EC50 for Benzimidalzole-resistant Cercospora beticola isolate 49-4; assay type: functional
Cercospora beticola [17] = assay: Antifungal activity against Benzimidalzole-resistant Cercospora beticola isolate Cb-19 infected in sugar beet seedlings at 50 ppm 24 hr-post inoculation; assay type: functional
Botrytis cinerea [18] = assay: Antifungal activity against Benzimidalzole-resistant Botryotinia fuckeliana isolate Bc-44 infected compound-treated kidney bean leaves at 50 ppm after 4 days; assay type: functional
Cercospora beticola [19] = assay: Ratio of EC50 for Benzimidalzole-sensitive Cercospora beticola isolate 22-5 to EC50 for Benzimidalzole-resistant Cercospora beticola isolate 49-4; assay type: functional
Botrytis cinerea [20] = assay: Ratio of EC50 for Benzimidalzole-resistant Botryotinia fuckeliana isolate Bc-40 to EC50 for Benzimidalzole-resistant Botryotinia fuckeliana isolate Bc-44; assay type: functional
Cercospora beticola [21] = assay: Ratio of EC50 for Benzimidalzole-resistant Cercospora beticola isolate 18-11 to EC50 for Benzimidalzole-resistant Cercospora beticola isolate 18-2; assay type: functional
Botrytis cinerea [22] = assay: Antifungal activity against Benzimidalzole-resistant Botryotinia fuckeliana isolate Bc-44 infected compound-treated kidney bean leaves at 12.5 ppm after 4 days; assay type: functional
Cercospora beticola [23] = assay: Ratio of EC50 for Benzimidalzole-resistant Cercospora beticola isolate 20-2 to EC50 for Benzimidalzole-resistant Cercospora beticola isolate 18-2; assay type: functional
Botrytis cinerea [24] = assay: Antifungal activity against Benzimidalzole-resistant Botryotinia fuckeliana isolate Bc-44 infected kidney bean leaves at 50 ppm treated as foliar application followed by incubation for 7 days in green house condition; assay type: functional
Cercospora beticola [25] = assay: Ratio of EC50 for Benzimidalzole-sensitive Cercospora beticola isolate 18-1 to EC50 for Benzimidalzole-resistant Cercospora beticola isolate 1-3; assay type: functional
Botrytis cinerea [26] = assay: Antifungal activity against Benzimidalzole-resistant Botryotinia fuckeliana isolate Bc-44 infected kidney bean leaves at 12.5 ppm treated as foliar application followed by incubation for 7 days in green house condition; assay type: functional
Cercospora beticola [27] = assay: Ratio of EC50 for Benzimidalzole-sensitive Cercospora beticola isolate 24-3 to EC50 for Benzimidalzole-resistant Cercospora beticola isolate 49-4; assay type: functional
Botrytis cinerea [28] = assay: Antifungal activity against Benzimidalzole-resistant Botryotinia fuckeliana isolate Bc-44 infected kidney bean leaves at 3.1 ppm treated as foliar application followed by incubation for 7 days in green house condition; assay type: functional
Cercospora beticola [29] = assay: Antifungal activity against Benzimidalzole-resistant Cercospora beticola isolate 18-2 infected in compound-treated sugar beet seedlings at 3.1 ppm after 12 days; assay type: functional
Cercospora beticola [30] = assay: Antifungal activity against Benzimidalzole-resistant Cercospora beticola isolate Cb-19 infected in sugar beet seedlings at 200 ppm applied as soil drench 3 days prior to inoculation; assay type: functional
Cercospora beticola [31] = assay: Ratio of EC50 for Benzimidalzole-sensitive Cercospora beticola isolate 18-1 to EC50 for Benzimidalzole-resistant Cercospora beticola isole 28-8; assay type: functional
Botrytis cinerea [32] = assay: Ratio of EC50 for Benzimidalzole-resistant Botryotinia fuckeliana isolate Bc-20 to EC50 for Benzimidalzole-resistant Botryotinia fuckeliana isolate Bc-44; assay type: functional
Botrytis cinerea [33] = assay: Ratio of EC50 for Benzimidalzole-sensitive Botryotinia fuckeliana isolate Bc-3 to EC50 for Benzimidalzole-resistant Botryotinia fuckeliana isolate Bc-44; assay type: functional
Cercospora beticola [34] = assay: Antifungal activity against Benzimidalzole-resistant Cercospora beticola isolate Cb-19 infected in sugar beet seedlings at 12.5 ppm 24 hr-post inoculation; assay type: functional
Cercospora beticola [35] = assay: Ratio of EC50 for Benzimidalzole-resistant Cercospora beticola isolate 6-13 to EC50 for Benzimidalzole-resistant Cercospora beticola isole 28-8; assay type: functional
Cercospora beticola [36] = assay: Antifungal activity against Benzimidalzole-resistant Cercospora beticola isolate 18-2 at 0.001 to 1000 ppm after 14 days by agar dilution method; assay type: functional, organism-based
Botrytis cinerea [37] = assay: Ratio of EC50 for Benzimidalzole-sensitive Botryotinia fuckeliana isolate Bc-9 to EC50 for Benzimidalzole-resistant Botryotinia fuckeliana isolate Bc-44; assay type: functional
Botrytis cinerea [38] = assay: Antifungal activity against Benzimidalzole-resistant Botryotinia fuckeliana isolate Bc-31 at 0.001 to 1000 ppm after 3 days by agar dilution method; assay type: functional, organism-based
Cercospora beticola [39] = assay: Antifungal activity against Benzimidalzole-sensitive Cercospora beticola isolate 18-1 at 0.001 to 1000 ppm after 14 days by agar dilution method; assay type: functional, organism-based
Cercospora beticola [40] = assay: Antifungal activity against Benzimidalzole-resistant Cercospora beticola isolate Cb-19 infected in sugar beet seedlings at 200 ppm treated as foliar application 7 days prior to inoculation; assay type: functional
Cercospora beticola [41] = assay: Ratio of EC50 for Benzimidalzole-sensitive Cercospora beticola isolate 22-5 to EC50 for Benzimidalzole-resistant Cercospora beticola isole 28-8; assay type: functional
Cercospora beticola [42] = assay: Antifungal activity against Benzimidalzole-resistant Cercospora beticola isolate Cb-19 infected in compound-treated sugar beet seedlings at 200 ppm after 12 days; assay type: functional
Cercospora beticola [43] = assay: Ratio of EC50 for […] to EC50 for Benzimidalzole-resistant Cercospora beticola isole Cb-19; assay type: functional

## C#CCOc1cc(N/C=N/OC)cc(Cl)c1OCC#C
Botrytis cinerea [1]
  Activity: 100%
Botrytis cinerea [2]
  Activity: 6%
Cercospora beticola [3]
  Ratio EC50: > 1000
Cercospora beticola [4]
  Activity: inactive
Cercospora beticola [5]
  Ratio EC50: > 1000
Botrytis cinerea [6]
  Ratio EC50: > 1000
Cercospora beticola [7]
  Ratio EC50: > 1000
Cercospora beticola [8]
  Ratio EC50: > 1000
Botrytis cinerea [9]
  Ratio EC50: > 1000
Botrytis cinerea [10]
  Ratio EC50: > 1000
Cercospora beticola [11]
  Ratio EC50: > 1000
Cercospora beticola [12]
  Activity: 0%
Cercospora beticola [13]
  Activity: 100%
Cercospora beticola [14]
  Ratio EC50: > 1000
Cercospora beticola [15]
  Activity: 100%
Cercospora beticola [16]
  Ratio EC50: > 1000
Cercospora beticola [17]
  Activity: 100%
Botrytis cinerea [18]
  Activity: 100%
Cercospora beticola [19]
  Ratio EC50: > 1000
Botrytis cinerea [20]
  Ratio EC50: > 1000
Cercospora beticola [21]
  Ratio EC50: > 1000
Botrytis cinerea [22]
  Activity: 100%
Cercospora beticola [23]
  Ratio EC50: > 1000
Botrytis cinerea [24]
  Activity: 90%
Cercospora beticola [25]
  Ratio EC50: > 1000
Botrytis cinerea [26]
  Activity: 63%
Cercospora beticola [27]
  Ratio EC50: > 1000
Botrytis cinerea [28]
  Activity: 31%
Cercospora beticola [29]
  Activity: 84%
Cercospora beticola [30]
  Activity: 94%
Cercospora beticola [31]
  Ratio EC50: > 1000
Botrytis cinerea [32]
  Ratio EC50: > 1000
Botrytis cinerea [33]
  Ratio EC50: > 1000
Cercospora beticola [34]
  Activity: 91%
Cercospora beticola [35]
  Ratio EC50: > 1000
Cercospora beticola [36]
  Activity: Active
Botrytis cinerea [37]
  Ratio EC50: > 1000
Botrytis cinerea [38]
  Activity: Active
Cercospora beticola [39]
  Activity: inactive
Cercospora beticola [40]
  Activity: 100%
Cercospora beticola [41]
  Ratio EC50: > 1000
Cercospora beticola [42]
  Activity: 100%
Cercospora beticola [43]
  Ratio EC50: > 1000

## C#CCOc1c(Cl)cc(N/C=N/OC)cc1Cl
Botrytis cinerea [1]
  Activity: 100%
Botrytis cinerea [2]
  Activity: 0%
Cercospora beticola [3]
  Ratio EC50: > 1000
Cercospora beticola [4]
  Activity: inactive
Cercospora beticola [5]
  Ratio EC50: > 1000
Botrytis cinerea [6]
  Ratio EC50: > 1000
Cercospora beticola [7]
  Ratio EC50: > 1000
Cercospora beticola [8]
  Ratio EC50: > 1000
Botrytis cinerea [9]
  Ratio EC50: > 1000
Botrytis cinerea [10]
  Ratio EC50: > 1000
Cercospora beticola [11]
  Ratio EC50: > 1000
Cercospora beticola [12]
  Activity: 0%
Cercospora beticola [13]
  Activity: 100%
Cercospora beticola [14]
  Ratio EC50: > 1000
Cercospora beticola [15]
  Activity: 100%
Cercospora beticola [16]
  Ratio EC50: > 1000
Cercospora beticola [17]
  Activity: 98%
Botrytis cinerea [18]
  Activity: 100%
Cercospora beticola [19]
  Ratio EC50: > 1000
Botrytis cinerea [20]
  Ratio EC50: > 1000
Cercospora beticola [21]
  Ratio EC50: > 1000
Botrytis cinerea [22]
  Activity: 100%
Cercospora beticola [23]
  Ratio EC50: > 1000
Botrytis cinerea [24]
  Activity: 100%
Cercospora beticola [25]
  Ratio EC50: > 1000
Botrytis cinerea [26]
  Activity: 53%
Cercospora beticola [27]
  Ratio EC50: > 1000
Botrytis cinerea [28]
  Activity: 17%
Cercospora beticola [29]
  Activity: 91%
Cercospora beticola [30]
  Activity: 72%
Cercospora beticola [31]
  Ratio EC50: > 1000
Botrytis cinerea [32]
  Ratio EC50: > 1000
Botrytis cinerea [33]
  Ratio EC50: > 1000
Cercospora beticola [34]
  Activity: 96%
Cercospora beticola [35]
  Ratio EC50: > 1000
Cercospora beticola [36]
  Activity: Active
Botrytis cinerea [37]
  Ratio EC50: > 1000
Botrytis cinerea [38]
  Activity: Active
Cercospora beticola [39]
  Activity: inactive
Cercospora beticola [40]
  Activity: 100%
Cercospora beticola [41]
  Ratio EC50: > 1000
Cercospora beticola [42]
  Activity: 100%
Cercospora beticola [43]
  Ratio EC50: > 1000
